This is an account of results in PubChem BioAssay AID256 (DTP/NCI, 2004).

“And” between values parts separate entries of the source, which are not always exact repeats. Equal entries are not always repeated. Toxic doses and inconclusive results are not listed.

For this assay, the system named is CD2F1 mice, L1210 leukemia ip, survival T/C. As to the kind of experiment: NCI In Vivo Anticancer Drug Screen. Data for tumor model L1210 Leukemia (intraperitoneal) in CD2F1 (CDF1) mice. Conditions: endpoint: mean survival time, higher = longer survival. The method in brief: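 Antitumor effect is scored in animals hosting a serially transplanted tumor. Values compare compound-dosed animals against vehicle-only controls as a simple quotient.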

The mark [1] stands for this setting: dose: 100.0 mg/kg/injection, schedule: Q01DX009 (ip), vehicle: saline.
Setting [2] is: dose: 100.0 mg/kg/injection, schedule: Q04DX003 (ip), vehicle: saline with Tween-80.
Where [3] appears, read: dose: 25.0 mg/kg/injection, schedule: Q01DX009 (ip), vehicle: water.
Setting [4] is: dose: 100.0 mg/kg/injection, schedule: Q01DX009 (ip), vehicle: saline with Tween-80.
Where [5] appears, read: dose: 200.0 mg/kg/injection, schedule: Q01DX009 (ip), vehicle: saline with Tween-80.
[6] abbreviates: dose: 400.0 mg/kg/injection, schedule: Q01DX009 (ip), vehicle: saline with Tween-80.
[7] abbreviates: dose: 100.0 mg/kg/injection, schedule: Q01DX001 (ip), vehicle: saline with Tween-80.
Where [8] appears, read: dose: 200.0 mg/kg/injection, schedule: Q01DX001 (ip), vehicle: saline with Tween-80.
The mark [9] stands for this setting: dose: 400.0 mg/kg/injection, schedule: Q01DX001 (ip), vehicle: saline with Tween-80.
Setting [10] is: dose: 100.0 mg/kg/injection, schedule: Q04DX003 (ip), vehicle: saline.
The mark [11] stands for this setting: dose: 200.0 mg/kg/injection, schedule: Q04DX003 (ip), vehicle: saline.
[12] abbreviates: dose: 400.0 mg/kg/injection, schedule: Q04DX003 (ip), vehicle: saline.

Consider `CN1COc2c(Cl)cc(Cl)cc2C1`, for which the T/C reads like this: (dose: 25.0 mg/kg/injection, schedule: Q01DX009 (ip), vehicle: saline) 104 % of control; (dose: 50.0 mg/kg/injection, schedule: Q01DX009 (ip), vehicle: saline) 104 % of control; under setting [1], 115 % of control; under setting [2], 98 % of control.
For the compound `CC(=O)Oc1cccc2c1C(=O)c1c(OC(C)=O)cccc1C2=O`, the T/C runs as follows: under setting [3], 102 % of control; (dose: 50.0 mg/kg/injection, schedule: Q01DX009 (ip), vehicle: water) 93 % of control; (dose: 100.0 mg/kg/injection, schedule: Q01DX009 (ip), vehicle: water) 96 % of control; (dose: 200.0 mg/kg/injection, schedule: Q01DX009 (ip), vehicle: water) 88 % of control.
In the case of `COC(=O)C(C(=O)OC)=C(C(=O)OC)C(=O)OC`, the T/C runs as follows: under setting [4], 96 % of control; under setting [5], 96 % of control; under setting [6], 94 % of control.
As for `CCC12C=CCN3CCC4(c5cc(C6c7[nH]c8ccccc8c7CCN7CCCCC67)c(OC)cc5N(C)C4C(O)(C(=O)OC)C1OC(C)=O)C32` (configuration not stated), the T/C (dose: 0.06 mg/kg/injection, schedule: Q01DX009 (ip), vehicle: other) is 93 % of control; the T/C (dose: 0.13 mg/kg/injection, schedule: Q01DX009 (ip), vehicle: other) was 93 % of control; the T/C (dose: 0.25 mg/kg/injection, schedule: Q01DX009 (ip), vehicle: other) was 92 % of control; the T/C (dose: 0.5 mg/kg/injection, schedule: Q01DX009 (ip), vehicle: other) is 95 % of control; the T/C (dose: 1.0 mg/kg/injection, schedule: Q01DX009 (ip), vehicle: other) is 90 % of control; the T/C (dose: 2.0 mg/kg/injection, schedule: Q01DX009 (ip), vehicle: other) was 93 % of control. Further, the T/C (dose: 4.0 mg/kg/injection, schedule: Q01DX009 (ip), vehicle: other) was 93 % of control.
Consider `CCCCCCCCCCCCCCCCSC(=S)OCC`, for which the T/C runs as follows: under setting [7], 95 % of control; under setting [4], 96 % of control; under setting [8], 87 % of control; under setting [5], 95 % of control; under setting [9], 95 % of control; under setting [6], 95 % of control.
`O=[N+]([O-])c1c[nH]n2c([N+](=O)[O-])cnc12`: the T/C runs as follows: (dose: 12.5 mg/kg/injection, schedule: Q01DX009 (ip), vehicle: water) 96 % of control; under setting [3], 97 % of control.
Turning to `O=C1C=C(NCCO)C(=O)C=C1NCCO`, the T/C is 98 % of control under setting [7], 90 % of control under setting [8] and 95 % of control under setting [9].
With `Nc1ncnc2c1c1cncnc1n2C1OC(CO)C(O)C1O` (configuration not stated), the T/C was 96 % of control (dose: 12.5 mg/kg/injection, schedule: Q01DX005 (ip), vehicle: distilled water + Tween-80); 98 % of control (dose: 25.0 mg/kg/injection, schedule: Q01DX005 (ip), vehicle: distilled water + Tween-80); 93 % of control (dose: 50.0 mg/kg/injection, schedule: Q01DX005 (ip), vehicle: distilled water + Tween-80); 90 % of control (dose: 100.0 mg/kg/injection, schedule: Q01DX005 (ip), vehicle: distilled water + Tween-80); 105 % of control (dose: 200.0 mg/kg/injection, schedule: Q01DX005 (ip), vehicle: distilled water + Tween-80); 110 % of control (dose: 400.0 mg/kg/injection, schedule: Q01DX005 (ip), vehicle: distilled water + Tween-80).
`CC(=O)N(C)[Si](C)(C)C`: the T/C under setting [7] is 96 % of control; the T/C (dose: 100.0 mg/kg/injection, schedule: Q01DX009 (ip), vehicle: saline sonified) was 98 % of control; the T/C under setting [10] is 98 % of control; the T/C under setting [8] is 100 % of control; the T/C (dose: 200.0 mg/kg/injection, schedule: Q01DX009 (ip), vehicle: saline sonified) was 96 % of control; the T/C under setting [11] is 97 % of control. For the same compound, the T/C is 106 % of control under setting [9]; 96 % of control (dose: 400.0 mg/kg/injection, schedule: Q01DX009 (ip), vehicle: saline sonified); 101 % of control under setting [12].
On to `COc1ccc(-n2cc(C#N)c3c(C)cc(C)nc32)cc1`, for which the T/C is 100 % of control (dose: 100.0 mg/kg/injection, schedule: Q01DX001 (ip), vehicle: saline); 96 % of control (dose: 200.0 mg/kg/injection, schedule: Q01DX001 (ip), vehicle: saline); 87 % of control (dose: 400.0 mg/kg/injection, schedule: Q01DX001 (ip), vehicle: saline).
With `CCOC(=O)CCC(NC(=O)c1ccc(N(C)S(=O)(=O)c2ccc(C)cc2)c(Cl)c1Cl)C(=O)OCC` (configuration not stated), the T/C under setting [2] is 105 % of control; the T/C (dose: 200.0 mg/kg/injection, schedule: Q04DX003 (ip), vehicle: saline with Tween-80) was 91 % of control; the T/C (dose: 400.0 mg/kg/injection, schedule: Q04DX003 (ip), vehicle: saline with Tween-80) is 94 % of control.
As for `O=C(O)C1OC12CCCCC2` (configuration not stated), the T/C was 96 % of control under setting [1]; 100 % of control under setting [10]; 101 % of control (dose: 200.0 mg/kg/injection, schedule: Q01DX009 (ip), vehicle: saline); 101 % of control under setting [11]; 100 % of control (dose: 400.0 mg/kg/injection, schedule: Q01DX009 (ip), vehicle: saline); 103 % of control under setting [12].
As to `CC(=O)CC(=O)N(C)Cc1ccccc1`, the T/C is 101 % of control under setting [7], 104 % of control under setting [8] and 107 % of control under setting [9].
Turning to `CC(C)c1ccc(C(=O)O)cc1S(=O)(=O)Cl`, the T/C is 98 % of control (dose: 25.0 mg/kg/injection, schedule: Q04DX003 (ip), vehicle: saline); 109 % of control (dose: 50.0 mg/kg/injection, schedule: Q04DX003 (ip), vehicle: saline); 100 % of control and 107 % of control under setting [10].
As to `O=C(Nc1nncs1)c1cccs1`, the T/C is 95 % of control and 104 % of control (dose: 12.5 mg/kg/injection, schedule: Q01DX009 (ip), vehicle: saline with Tween-80); 93 % of control and 103 % of control (dose: 25.0 mg/kg/injection, schedule: Q01DX009 (ip), vehicle: saline with Tween-80); 93 % of control and 94 % of control (dose: 50.0 mg/kg/injection, schedule: Q01DX009 (ip), vehicle: saline with Tween-80); 92 % of control and 100 % of control under setting [4]; 118 % of control under setting [5]; 172 % of control under setting [6].
For the compound `CCn1ccc(=O)nc1`, the T/C reads like this: (dose: 12.5 mg/kg/injection, schedule: Q04DX002 (ip), vehicle: saline with Tween-80) 95 % of control; (dose: 25.0 mg/kg/injection, schedule: Q04DX002 (ip), vehicle: saline with Tween-80) 95 % of control; (dose: 50.0 mg/kg/injection, schedule: Q04DX002 (ip), vehicle: saline with Tween-80) 106 % of control.
For the compound `Cc1ccccc1NC(=O)Oc1c(Cl)cc(Cl)c2ccccc12`, the T/C reads like this: (dose: 100.0 mg/kg/injection, schedule: Q04DX002 (ip), vehicle: saline with Tween-80) 89 % of control; (dose: 200.0 mg/kg/injection, schedule: Q04DX002 (ip), vehicle: saline with Tween-80) 93 % of control; (dose: 400.0 mg/kg/injection, schedule: Q04DX002 (ip), vehicle: saline with Tween-80) 101 % of control.
`CC(C)C(C)/C=C\C(C)C1CCC2C3=CCC4CC(=O)CCC4(C)C3CCC21C` (configuration not stated): the T/C is 103 % of control (dose: 25.0 mg/kg/injection, schedule: Q01DX001 (ip), vehicle: Klucel (hydroxypropylcellulose) (HPC)); 96 % of control (dose: 50.0 mg/kg/injection, schedule: Q01DX001 (ip), vehicle: Klucel (hydroxypropylcellulose) (HPC)); 103 % of control (dose: 100.0 mg/kg/injection, schedule: Q01DX001 (ip), vehicle: Klucel (hydroxypropylcellulose) (HPC)).
